Test results from patent US9732094B2, “Arylquinazolines” (Merck Patent GmbH, priority 2013, dated 2017).
Where two headings read alike, the source gives them in different places.

Tests used:
[1] = molecular target: DNA-PK (Homo sapiens (Human), UniProt P78527); experiment: DNA-PK assay (biochemical), flashplate 33P-ATP kinase assay
How it was run: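 Reactions ran in streptavidin-coated flashplates and were halted by 200 mM EDTA, with a further 30 min at room temperature before saline washing.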

[2] = molecular target: Kv11.1 (hERG) (Homo sapiens (Human), UniProt Q12809); experiment: Kv11.1 (hERG) ion channel activity (patch clamp assay), HEK293 cells transfected with hERG gene
Sequence of Kv11.1 (hERG) (Q12809 whole entry): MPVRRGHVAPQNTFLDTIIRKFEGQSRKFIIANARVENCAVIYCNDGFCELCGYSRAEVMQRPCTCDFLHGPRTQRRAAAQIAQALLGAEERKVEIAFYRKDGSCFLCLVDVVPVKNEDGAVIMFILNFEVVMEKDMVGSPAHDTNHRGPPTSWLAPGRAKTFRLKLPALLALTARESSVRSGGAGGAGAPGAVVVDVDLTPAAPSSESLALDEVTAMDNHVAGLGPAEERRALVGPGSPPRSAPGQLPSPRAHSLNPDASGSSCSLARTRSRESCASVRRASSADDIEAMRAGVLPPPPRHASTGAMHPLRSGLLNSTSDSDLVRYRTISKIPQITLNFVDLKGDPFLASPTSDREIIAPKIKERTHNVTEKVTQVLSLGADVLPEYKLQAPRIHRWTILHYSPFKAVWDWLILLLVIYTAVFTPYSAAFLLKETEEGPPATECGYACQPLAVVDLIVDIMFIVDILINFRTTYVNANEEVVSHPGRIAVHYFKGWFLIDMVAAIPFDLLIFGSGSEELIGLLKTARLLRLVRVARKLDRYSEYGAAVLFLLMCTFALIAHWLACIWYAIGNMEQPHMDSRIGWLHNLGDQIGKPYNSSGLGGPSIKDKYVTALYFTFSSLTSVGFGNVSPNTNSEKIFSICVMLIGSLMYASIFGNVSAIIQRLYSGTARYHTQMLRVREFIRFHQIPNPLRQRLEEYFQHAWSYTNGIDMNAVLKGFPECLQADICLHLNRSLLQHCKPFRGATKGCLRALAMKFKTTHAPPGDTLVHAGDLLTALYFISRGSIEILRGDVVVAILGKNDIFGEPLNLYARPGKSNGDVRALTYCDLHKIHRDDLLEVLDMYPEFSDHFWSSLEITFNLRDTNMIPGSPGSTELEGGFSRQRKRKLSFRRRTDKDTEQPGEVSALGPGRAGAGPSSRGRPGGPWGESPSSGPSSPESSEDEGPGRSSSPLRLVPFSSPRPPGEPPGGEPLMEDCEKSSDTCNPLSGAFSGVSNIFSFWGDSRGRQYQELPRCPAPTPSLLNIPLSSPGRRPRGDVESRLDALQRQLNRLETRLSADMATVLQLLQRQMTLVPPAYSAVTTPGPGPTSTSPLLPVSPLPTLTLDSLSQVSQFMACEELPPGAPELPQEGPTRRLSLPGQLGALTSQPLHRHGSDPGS

[3] = molecular target: DNA-PK phosphorylation at serine 2056 (Homo sapiens (Human), UniProt P78527); experiment: DNA-PK phosphorylation at serine 2056 (cellular), bleomycin-treated HCT116 cells, ELISA; type: cell-based; settings: HCT116 cells, read-out: IC50 pDNA-PK
How it was run: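 HCT116 cells grown overnight were co-treated with 10 μM bleomycin and test compound for 6 h at 37 °C. Phospho-DNA-PK was quantified by chemiluminescent ELISA and normalised to total DNA-PKcs signal, with DMSO control as blank.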

[4] = Ki [Kv1.11 hERG], patch clamp, HEK293 transfected with hERG gene
[5] = cellular, 10 μM bleomycin, six hours
[6] = read-out: Ki [Kv1.11 hERG], patch clamp, HEK293 transfected with hERG gene
[7] = read-out: Ki [Kv1.11 hERG], Table 5

Molecule `COc1ccc(C(O)c2cc(-c3ncnc4cc(N5CCOCC5)sc34)c(F)cc2Cl)nn1` (stereo not drawn) [Example 128, (2-Chloro-4-fluoro-5-(6-morpholin-4-ylthieno[3,2-d}-pyrimidin-4-yl)-phenyl]-(6-methoxy-pyridazin-3-yl)-methanol] has an IC50 ([1]; enzymatic, 5 μM ATP) of under 0.003 µM, a Ki [2, 4] of 15 to 25 µM and an IC50 [3, 5] of 0.5 to 5 µM.

`COc1ccc(C(O)c2cc(-c3nc(Cl)nc4cc(N5CCOCC5)ccc34)c(F)cc2Cl)nn1` (stereo not drawn) [Example 132, [2-Chloro-5-(2-chloro-7-morpholin-4-yl-quinazolin-4-yl)-4-fluorophenyl]-(6-methoxy-pyridazin-3-yl)-methanol] showed an IC50 ([1]; enzymatic, 5 μM ATP) of 0.003 to 0.007 µM, a Ki [2, 6] of over 25 µM and an IC50 [3, 5] of 0.5 to 5 µM.

`CN(C)CCOc1ccc(C(O)c2ccc(F)c(-c3ncnc4cc(N5CCOCC5)ccc34)c2)nn1` (stereo not drawn) [Example 133, [6-(2-Dimethyl-amino-ethoxy)-pyridazin-3-yl]-[4-fluoro-3-(7-morpholin-4-yl-quinazolin-4-yl)-phenyl]methanol] gave an IC50 ([1]; enzymatic, 5 μM ATP) of 0.007 to 0.03 µM, a Ki [2, 6] of over 25 µM and an IC50 [3, 5] of 5 to 10 µM.

Work on `CCOc1ccc(C(O)c2ccc(F)c(-c3ncnc4cc(N5CCOCC5)ccc34)c2)nn1` (stereo not drawn) [Example 134, (6-Ethoxy-pyridazin-3-yl)-[4-fluoro-3-(7-morpholin-4-yl-quinazolin-4-yl)-phenyl]methanol] yielded an IC50 ([1]; enzymatic, 5 μM ATP) of 0.007 to 0.03 µM, a Ki [2, 4] of 10 to 15 µM and an IC50 [3, 5] of 0.5 to 5 µM.

`OC(c1ccc(F)c(-c2ncnc3cc(C4=CCOCC4)ccc23)c1)c1nccs1` (stereo not drawn) [Example 139, {3-[7-(3,6-Dihydro-2H-pyran-4-yl)-quinazolin-4-yl]-4-fluoro-phenyl}-thiazol-2-ylmethanol] was tested, and the IC50 ([1]; Table 5) was 0.007 to 0.03 µM, the Ki [2, 7] was over 25 µM and the IC50 ([3]; Table 5) was 10 to 30 µM.

With `OC(c1ccc(F)c(-c2ncnc3cc(N4CCOCC4)ncc23)c1)c1nccs1` (stereo not drawn) [Example 140, [4-Fluoro-3-(7-morpholin-4-yl-pyrido[4,3-d}-pyrimidin-4-yl)-phenyl]thiazol-2-yl-methanol] the IC50 ([1]; Table 5) was over 0.03 µM, the Ki ([2]; Ki [Kv1.11 hERG], Table 5) was 15 to 25 µM and the IC50 ([3]; Table 5) was 10 to 30 µM.

For `OCc1csc(C(O)c2cc(-c3ncnc4cc(N5CCOCC5)ncc34)c(F)cc2Cl)n1` (stereo not drawn) [Example 141, [2-chloro-4-fluoro-5-(7-morpholin-4-ylpyrido[4,3-d]pyrimidin-4-yl)phenyl]-(4-hydroxymethylthiazol-2-yl)methanol], the IC50 ([1]; Table 5) was over 0.03 µM, the Ki ([2]; Ki [Kv1.11 hERG], Table 5) was 15 to 25 µM and the IC50 ([3]; Table 5) was 10 to 30 µM.

`OCc1csc(C(O)c2cc(-c3ncnc4cc(N5CCOCC5)ccc34)c(F)cc2Cl)n1` (stereo not drawn) [Example 142, [2-Chloro-4-fluoro-5-(7-morpholin-4-yl-quinazolin-4-yl)-phenyl]-(4-hydroxymethyl-thiazol-2-yl)-methanol] was tested, and the IC50 ([1]; Table 5) was under 0.003 µM, the Ki [2, 7] was under 10 µM and the IC50 ([3]; Table 5) was 0.5 to 5 µM.

Work on `CNCc1csc(C(O)c2cc(-c3ncnc4cc(N5CCOCC5)ccc34)c(F)cc2Cl)n1` (stereo not drawn) [Example 143, [2-Chloro-4-fluoro-5-(7-morpholin-4-ylquinazolin-4-yl)phenyl]-(4-methylaminomethylthiazol-2-yl)methanol] yielded an IC50 ([1]; Table 5) of 0.007 to 0.03 µM, a Ki ([2]; Ki [Kv1.11 hERG], Table 5) of 10 to 15 µM and an IC50 ([3]; Table 5) of 5 to 10 µM.

In the case of `OC(c1cccc(-c2ncnc3cc(N4CCOCC4)ccc23)c1)c1nccs1` (stereo not drawn) [Example 148, [3-(7-Morpholin-4-ylquinazolin-4-yl)-phenyl]thiazol-2-yl-methanol], the IC50 ([1]; Table 5) is reported as 0.007 to 0.03 µM, the Ki ([2]; Ki [Kv1.11 hERG], Table 5) is reported as 10 to 15 µM and the IC50 ([3]; Table 5) is reported as 10 to 30 µM.

`OC(c1cccc(-c2ncnc3cc(N4CCOCC4)ccc23)c1)c1nccs1` (stereo not drawn) [Example 150, [3-(7-Morpholin-4-ylquinazolin-4-yl)-phenyl]thiazol-2-yl-methanol] gave an IC50 ([1]; Table 5) of 0.007 to 0.03 µM, a Ki [2, 7] of over 25 µM and an IC50 ([3]; Table 5) of 5 to 10 µM.

Work on `CC(O)(c1cncc(-c2ncnc3cc(N4CCOCC4)ccc23)c1)c1nccs1` (stereo not drawn) [Example 152, 1-[5-(7-Morpholin-4-ylquinazolin-4-yl)-pyridin-3-yl]-1-thiazol-2-ylethanol] yielded an IC50 ([1]; Table 5) of 0.007 to 0.03 µM, a Ki [2, 7] of over 25 µM and an IC50 ([3]; Table 5) of 10 to 30 µM.

Molecule `OC(c1cccc(-c2ncnc3cc(N4CCOCC4)ccc23)c1)(c1nccs1)C(F)(F)F` (stereo not drawn) [Example 159, 2,2,2-Trifluoro-1-[3-(7-morpholin-4-yl-quinazolin-4-yl)-phenyl]-1-thiazol-2-ylethanol] has an IC50 ([1]; Table 5) of 0.007 to 0.03 µM, a Ki [2, 7] of under 10 µM and an IC50 ([3]; Table 5) of 10 to 30 µM.

`CC(O)(c1ccc(F)c(-c2ncnc3cc(N4CCOCC4)ccc23)c1)c1nccs1` (stereo not drawn) [Example 163, 1-[4-Fluoro-3-(7-morpholin-4-yl-quinazolin-4-yl)-phenyl]-1-thiazol-2-ylethanol] gave an IC50 ([1]; Table 5) of 0.007 to 0.03 µM, a Ki ([2]; Ki [Kv1.11 hERG], Table 5) of 10 to 15 µM and an IC50 ([3]; Table 5) of 10 to 30 µM.
